Reference: patent US20260374829A1, “METHODS AND PLATFORM RELATED TO FLUORESCENT PROTEIN BIOSENSORS” (BOARD OF REGENTS, THE UNIVERSITY OF TEXAS SYSTEM, priority 2023, published 2026)

Columns and labels:
[1] = test system: free ADPR sensor (cpVenus integrated between amino acids 118 and 119 of Shewanella oneidensis NrtR, Uniprot Q8EFJ3; K435A, S436D, D122N), SEQ ID NO: 1; test: Fluorescence response of purified free ADPR sensor to ligands in vitro; type: binding; conditions: role: ligand; for sensor fluorescence response (in words): FIG. 5A; for sensor responsivity (in words): structurally related molecules, FIG. 5
Excerpt: (§1) The sensor is based on a circularly-permutated single fluorescent protein design (Baird et al, 1999 PNAS and reviewed in Nasu et al, 2021 Nat Chem Biol). For the fluorescence readout, the GFP-derived fluorescent protein, Venus, was used. Venus was circularly permutated and reforms to its fluorescent beta barrel fold by introducing a cut between amino acids 144 and 145 and connecting its original N- and C-termini with a 5 amino acid GGSGG linker sequence (circularly permutated Venus now referred to as cpVenus or cpV). Circular permutation permits attachment of an analyte binding domain in close proximity to the chromophore of Venus. The analyte binding domain confers selectivity of ligand binding to the sensor. The Nudix-like bacterial transcription factor NrtR from Shewanella oneidensis was used that is an ADPR-dependent transcriptional repressor (Rodionov et al, 2008 Nucleic Acids Res; Gao et al, 2019 eLIFE). The cpV protein was integrated between amino acids 118 and 119 in the sequence of NrtR (Uniprot Q8EFJ3).
Based on these analyses, cpV integrated into site 118/119 in NrtR was chosen for further analyses. This site is adjacent to the hinge region of the ligand-binding site, and it is within an alpha-helix that undergoes a disruptive loss of secondary structure when free ADPR binds (FIG. 1). The model is that this structural change is transduced to the nearby chromophore of cpV to cause a change in fluorescence intensity. This may occur through disruption of the chromophore or shifting the pKa of the chromophore.
Due to the compact nature of NrtR, attempts to use truncation to eliminate the DNA-binding domain appeared to destabilize the whole protein and thus could not be used. Instead, three point mutations were identified and used to ablate the outward facing overall positive change on this domain. These point mutations are distinct from the ligand-binding domain. The specific sites and their mutations (K435A and S436D) were identified through empirical screening and it was determined that in combination they alleviated aggregation of the sensor when it was ectopically expressed (FIG. 2).
The mutation D122N was also incorporated to reduce the number of polar and charged side-chains in proximity to the sensor's chromophore. The rationale was that charged residues could shift the local pKa of the chromophore promoting in its protonation. Introduction of D122N improved the brightness of the sensor and stabilized its pH-sensitivity between pH 7.4-8.0 (FIG. 3)
The sequence of the free ADPR sensor is shown in SEQ ID NO: 1.
The purified sensor (FIG. 4) decreased in fluorescence intensity with addition of free ADPR. At high concentrations, it saturated with ~80% diminishment of sensor brightness that represented an […] dose-dependent response (FIG. 4B, red). […] It was determined that the sensor responds to free ADPR with a Kd~2 μM±1 μM and is thus poised to detect intracellular free ADPR concentrations (Heiner, et al, 2006 Biochem J; Gasser and Guse, 2005 J Chromatogr B Analyt Technol Biomed Life Sci; Gasser et al, 2006 J Biol Chem).

free ADPR sensor = test: Free ADPR sensor response in live cells to H2O2 treatment (confocal microscopy); type: cell-based; conditions: role: activator (oxidation stress), acute H2O2 treatment, FIG. 7
Method: (§2) Values are mean (F/F0)±SD, analyzed by confocal microscopy.
(§3) With confocal imaging, it was determined that the free ADPR sensor responded in live cells to an accumulation of free ADPR upon oxidation stress by acute H2O2 treatment (FIG. 7). In this experimental paradigm, H2O2 induces PARP1/2 to generate poly-ADPR chains, and due to the activities of glycohydrolases, this in turn leads to increased levels of free ADPR monomers. […] The generation of free ADPR was confirmed by a GCaMP7s sensor that monitored the resulting Ca^2+ influx from activation of co-expressed TRPM2 (FIG. 7B).

TRPM2 = TRPM2 response in live cells to H2O2 treatment, Ca2+ influx reported by GCaMP7s; type: cell-based; conditions: role: activator (via increased free cytosolic ADPR), GCaMP7s readout, FIG. 7B
Method: as §2, §3

[2] = test system: free ADPR sensor no binding control R98E (cpVenus in Shewanella oneidensis NrtR, Uniprot Q8EFJ3; binding pocket mutant R98E), SEQ ID NO: 2; test: Fluorescence response of non-binding control sensor to ligands in vitro; conditions: role: ligand, FIG. 4B
Excerpt: as §1
The purified sensor (FIG. 4) decreased in fluorescence intensity with addition of free ADPR. At high concentrations, it saturated with ~80% diminishment of sensor brightness that represented an ~4-fold dose-dependent response (FIG. 4B, red). […]

PARP1/2 = test: Free ADPR sensor response in live cells after acute H2O2 treatment (confocal imaging), with PARP1/2 inhibitor; type: cell-based; conditions: role: inhibitor (PARP1/2), FIG. 7
Method: as §2, §3

## Nc1ncnc2c1ncn2[C@@H]1O[C@@H]2COP(=O)(O)OP(=O)(O)OC[C@H]3OC(O[C@@H]1[C@@H]2O)[C@H](O)[C@@H]3O [2′-cyclic ADPR]
[1]
  sensor fluorescence response (in words): does not respond

## Nc1ncnc2c1ncn2[C@H]1C[C@H](O)[C@@H](COP(=O)(O)OP(=O)(O)OC[C@H]2OC(O)[C@H](O)[C@@H]2O)O1 (stereo partly drawn) [2′-deoxy ADPR]
[1]
  sensor fluorescence response (in words): responds

## Nc1ncnc2c1ncn2[C@@H]1O[C@@H]2COP(=O)(O)OP(=O)(O)OC[C@H]3OC(O[C@H]2[C@H]1O)[C@H](O)[C@@H]3O [3′-cyclic ADPR]
[1]
  sensor fluorescence response (in words): does not respond

## Nc1ncnc2c1ncn2[C@@H]1O[C@H](COP(=O)(O)OP(=O)(O)O)[C@@H](O)[C@H]1O [ADP, adenosine diphosphate]
[1]
  sensor fluorescence response (in words): does not respond
  sensor responsivity (in words): minimal responsivity

## Nc1ncnc2c1ncn2[C@@H]1O[C@H](COP(=O)(O)O)[C@@H](O)[C@H]1O [AMP, adenosine monophosphate]
[1]
  sensor fluorescence response (in words): does not respond

## Nc1ncnc2c1ncn2[C@@H]1O[C@H](COP(=O)(O)OP(=O)(O)OP(=O)(O)O)[C@@H](O)[C@H]1O [ATP, adenosine triphosphate]
[1]
  sensor fluorescence response (in words): does not respond
  sensor responsivity (in words): minimal responsivity

## OO [H2O2]
Free ADPR sensor
  free ADPR sensor response to accumulation of free ADPR (in words): responded
TRPM2
  TRPM2 response, influx of intracellular Ca2+ (in words): responds with an influx of intracellular Ca^2+

## Nc1ncnc2c1ncn2[C@@H]1O[C@H](COP(=O)(O)OP(=O)(O)OC[C@H]2O[C@@H]([n+]3cccc(C(=O)O)c3)[C@H](O)[C@@H]2O)[C@@H](O)[C@H]1O [NAAD^+]
[1]
  sensor fluorescence response (in words): does not respond

## NC(=O)C1=CN([C@@H]2O[C@H](COP(=O)(O)OP(=O)(O)OC[C@H]3O[C@@H](n4cnc5c(N)ncnc54)[C@H](O)[C@@H]3O)[C@@H](O)[C@H]2O)C=CC1 [NADH, nicotinamide adenine dinucleotide]
[1]
  sensor fluorescence response (in words): does not respond

## NC(=O)c1ccc[n+]([C@@H]2O[C@H](COP(=O)(O)OP(=O)(O)OC[C@H]3O[C@@H](n4cnc5c(N)ncnc54)[C@H](O)[C@@H]3O)[C@@H](O)[C@H]2O)c1 [NAD^+, oxidized nicotinamide adenine dinucleotide]
[1]
  sensor fluorescence response (in words): does not respond

## Nc1ncnc2c1ncn2[C@@H]1O[C@H](COP(=O)(O)OP(=O)(O)OC[C@H]2O[C@@H]([n+]3cccc(C(=O)O)c3)[C@H](O)[C@@H]2O)[C@@H](O)[C@H]1OP(=O)(O)O [NaADP^+]
[1]
  sensor fluorescence response (in words): does not respond

## CC(=O)O[C@H]1C(O)O[C@H](COP(=O)(O)OP(=O)(O)OC[C@H]2O[C@@H](n3cnc4c(N)ncnc43)[C@H](O)[C@@H]2O)[C@H]1O (stereo partly drawn) [O-Acetyl ADPR]
[1]
  sensor fluorescence response (in words): responds

## O=C(CO)[C@H](O)[C@H](O)COP(=O)(O)O [Ribulose-5-Phosphate]
[1]
  sensor fluorescence response (in words): does not respond

## N=c1c2ncn3c2ncn1[C@@H]1O[C@H](COP(=O)(O)OP(=O)(O)OC[C@H]2O[C@@H]3[C@H](O)[C@@H]2O)[C@@H](O)[C@H]1O [cyclic ADPR]
[1]
  sensor fluorescence response (in words): does not respond

## Nc1ncnc2c1ncn2[C@@H]1O[C@H](COP(=O)(O)OP(=O)(O)OC[C@H]2OC(O)[C@H](O)[C@@H]2O)[C@@H](O)[C@H]1O (stereo partly drawn) [free ADPR, Adenosine 5′Di-Phosphate Ribose]
[1]; FIG. 4B, mean of n=3
  fluorescence intensity with increasing free ADPR concentrations (in words): decreases
[1]; at high concentrations (saturated)
  diminishment of sensor brightness at saturation: ~ 80%
[1]; fluorescence intensity, at saturation
  dose-dependent response (fold): ~ 4 fold
[1]
  sensor fluorescence response (in words): responds
[2]
  response of binding mutant to free ADPR (in words): did not respond

## O=C(c1cc(Cc2n[nH]c(=O)c3ccccc23)ccc1F)N1CCN(C(=O)C2CC2)CC1 [olaparib]
PARP1/2
  effect on H2O2-induced free ADPR sensor responses (in words): eliminated sensor responses

## Nc1ncnc2c1ncn2[C@@H]1O[C@H](COP(=O)(O)OP(=O)(O)OC[C@H]2OC(O)[C@H](O)[C@@H]2O)[C@@H](O)[C@H]1OP(=O)(O)O (stereo partly drawn) [phospho ADPR]
[1]
  sensor fluorescence response (in words): responds
